US8293211B2, “CB1 receptor antagonists and uses thereof” (MAKScientific, LLC, priority 2007, dated 2012)

What was measured:
[1] = system: Male Sprague-Dawley (SD) rats; experiment: Food intake studies (experiments A, B, C), food intake and body weight; type: in vivo, rat
Method: All experimental protocols were approved by internal guidelines. Different concentrations of drugs were administered I.P. in a 1 ml kg-1 (milliliters per kilogram) volume, except M6G, which was given s.c. (subcutaneously) in a 0.1 ml kg-1 volume.
Food and water were presented in inverted glass bottles that attached to the outside of the cage. Food was available for 18 h each day starting at 16:00 h (12 h light-dark cycle; lights off 16:00 h).
Intake measurements were taken at 1.5 h, 3 h, 5 h, and 18 h after food became available.
Rats were habituated to testing and handling procedures as before. […] Food intake and body weight were monitored daily.
On the day of the experiment each rat received only a single injection, 30 min later food was made available as described in experiment 1. Food intake was measured 0.5, 1.5, 3, 5, and 18 h after administration. Food intake and body weight were monitored daily for five days after the experiment to assess the sustained effect of a single administration of each compound.

Rats = experiment: Taste reactivity studies (conditioned gaping, saccharin preference); type: in vivo, rat; details: for Mean (±SEM) saccharin preference ratio: 2-bottle preference test
Method: Rats were implanted with intraoral cannulae and 24 hrs prior to the surgical procedure, they were administered a prophylactic antibiotic (Derapin, 100 mg/kg, sc; Ayerst). On the day of surgery, the rats were anaesthetized with isofluorane gas and were administered Anafen (7.0 mg/kg, sc; Merial), a nonsteroidal anti-inflammatory drug (NSAID) with analgesic properties. A 3.0 cm^2 patch of fur was shaved at the back of the neck just above the scapula and the area was surgically prepared [Betadine surgical scrub (Purdue Frederick) and alcohol]. A thin-walled 15-gauge stainless steel needle was inserted at the back of the neck, directed s.c., around the ear and brought out behind the first molar inside the mouth. A length of IntraMedic polyetheylene tubing with an inner diameter of 0.86 mm and an outer diameter of 1.27 mm was then run through the needle after which the needle was removed. Two circular elastic discs were placed over the tubing and drawn to the exposed skin at the back of the neck for the purpose of stabilizing the cannula. The tubing was held secure in the oral cavity by an o-ring, which was sealed behind the tubing prior to cannulation surgery. For the purposes of conditioning and testing, the cannula was connected to the infusion pump (Harvard Apparatus, South Natick, Mass.) for delivery of the solution by slipping the tubing of the cannula inside a second polyethylene tube (inner diameter 1.19 mm, outer diameter 1.70 mm) attached to the infusion pump. Two rats were subsequently removed from the study due to an ineffective cannula.
Five days after surgery and prior to conditioning (day 1), rats were individually placed in the Plexiglas taste reactivity chamber (22.5×26×20 cm) with their cannula attached to the infusion pump for fluid delivery. The rats were habituated to the taste reactivity procedure by infusing them with water for a period of 5 min at a rate of 1.0 ml/min after which they were returned to their home cage. On day 2, the rats were individually taken to the chamber for a single conditioning trial. They were intraorally infused with 0.1% saccharin solution for 5 min at a rate of 1.0 ml/min while their orofacial and somatic responses were videotaped from a mirror at a 45° angle below the chamber. Immediately after the saccharin infusion the rats were injected with the appropriate dose of Compound 3, according to random assignment: 0.0 mg/kg (vehicle; n=8), 2.0 mg/kg (n=7), 4.0 mg/kg (n=7), 8.0 mg/kg (n=8). On day 5, the animals were given a second adaptation trial with a 5-min intraoral infusion of water.
Taste reactivity testing occurred on day 6, 96 hr after conditioning. The rats were taken to the chamber and following a period of 1 min were infused with 0.1% saccharin solution over a period of 5 min (1.0 ml/min) while being videotaped. Immediately after the session, the rats were returned to their home cage. On day 7, following 15 hr of water deprivation, the rats were given a 2-bottle preference test. The rats were presented with a graduated tube containing 0.1% saccharin solution and a graduated tube containing water for a period of 120 min. The amount consumed from each bottle during the 120 min of drinking was converted to a preference score: Amount consumed of saccharin solution/amount consumed of saccharin+amount consumed of water. The taste reactivity videotapes were scored using the Observer (Noldus Information Technology, Sterling, Va.) event-recording program. The behaviors scored included the frequency of gaping, chin rubs, ingestive reactions, passive drips and activity. Gaping was defined as rapid, large-amplitude opening of the mandible with retraction of the corners of the mouth. Chin rubbings were defined as chin or mouth in direct contact with the floor or wall of the chamber and forward projections of the body. […]

CB1 receptor = CB1 receptor (Rattus norvegicus, UniProt P20272); experiment: Thermoregulation assay: hypothermia induced by the CB1 agonist CP55,940; type: in vivo; set-up: antagonized CB1 receptors in vivo; from tissue; host or cells: whole animal, male SD rats
Method: Briefly, silicone coated temperature data loggers (SubCue Inc, Calgary, Canada) were surgically implanted into the abdominal cavity of male SD (450-500 g) rats under isoflurane anesthesia (4% induction; 2-2.5% maintenance). Rats were allowed to recover for 3 days before being acclimatized to testing and handling procedures for an additional seven days. Core body temperature readings were sampled every 5 min for 300 min during the course of each experiment.

[2] = experiment B, 5 mg kg-1 daily, day 4
[3] = experiment B, 5 mg kg-1 daily, day 5

Chain of CB1 receptor (P20272 whole entry): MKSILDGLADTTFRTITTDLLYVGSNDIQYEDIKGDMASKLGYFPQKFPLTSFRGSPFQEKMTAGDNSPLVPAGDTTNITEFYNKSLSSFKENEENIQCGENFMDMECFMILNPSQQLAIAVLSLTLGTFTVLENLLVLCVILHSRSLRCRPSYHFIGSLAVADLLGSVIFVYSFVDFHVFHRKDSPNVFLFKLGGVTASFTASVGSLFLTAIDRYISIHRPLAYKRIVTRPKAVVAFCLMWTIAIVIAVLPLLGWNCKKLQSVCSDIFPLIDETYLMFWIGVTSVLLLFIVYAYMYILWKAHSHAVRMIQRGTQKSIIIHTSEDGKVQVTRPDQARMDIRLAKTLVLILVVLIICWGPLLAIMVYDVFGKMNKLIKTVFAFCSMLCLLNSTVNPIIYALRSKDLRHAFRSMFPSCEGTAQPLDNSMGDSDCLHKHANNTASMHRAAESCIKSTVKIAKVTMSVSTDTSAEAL

Which “acute effect on food intake compared with vehicle” value ([1]; experiment A, 5 mg kg-1 I.P. single dose) does the source give for `Cc1c(C(=O)NN2CCCCC2)nn(-c2ccc(Cl)cc2Cl)c1-c1ccc(C#CCCC#N)cc1` [Compound 3] here?
Its value is “did not significantly reduced food intake”.

And the “food intake and weight gain, differences to vehicle treated rats” value ([1]; experiment B, 1 mg kg-1 daily)?
The value was “non significant”.

And the “food intake, difference compared with vehicle treated rats” value ([1]; experiment B, 5 mg kg-1 daily, day 3)?
The value was -23.2 g.

What about the “food intake, difference compared with vehicle treated rats” value [1, 2] of the same compound?
The value was -20.4 g.

And the “weight gain, difference to vehicle treated rats” value [1, 2]?
Its value is -15.6 g.

What about the “food intake, difference compared with vehicle treated rats” value [1, 3] of the same compound?
The value was -19.2 g.

And the “weight gain, difference to vehicle treated rats” value [1, 3]?
The value was -21.8 g.

What about the “weight gain, difference to vehicle treated rats” value ([1]; experiment B, 5 mg kg-1 daily, day 6) of the same compound?
The value was -23.7 g.

What about the “food intake compared with vehicle” value ([1]; experiment B, 1 and 5 mg kg-1 daily, first day of treatment) of the same compound?
The value was “No significant reductions”.

What about the “differences in food intake” value ([1]; experiment B, 1 and 5 mg kg-1 daily, second day of treatment) of the same compound?
Its value is “not statistically significant”.

And the “food intake, difference between the 1 mg kg-1 and 5 mg kg-1 doses” value ([1]; experiment B, daily treatment, day 3)?
Its value is -17.6 g.

What about the “weight gain, difference 5 mg kg-1 versus 1 mg kg-1” value ([1]; experiment B, daily treatment, day 4) of the same compound?
The value was -12.0 g.

What about the “food intake, difference compared with vehicle treated rats” value ([1]; experiment C, 10 mg kg-1 single dose, 3 h) of the same compound?
Its value is -20.0 g.

What about the “food intake, difference compared with vehicle treated rats” value ([1]; experiment C, 10 mg kg-1 single dose, 5 h) of the same compound?
Its value is -22.8 g.

What about the “food intake, difference compared with vehicle treated rats” value ([1]; experiment C, 10 mg kg-1 single dose, 18 h) of the same compound?
Its value is -42.0 g.

And the “food intake, difference compared with vehicle treated rats” value ([1]; experiment C, 10 mg kg-1 single dose, […])?
Its value is -14.3 g.

What about the “food intake, difference compared with vehicle treated rats” value ([1]; experiment C, 20 mg kg-1 single dose, 3 h) of the same compound?
Its value is -21.3 g.

And the “food intake, difference compared with vehicle treated rats” value ([1]; experiment C, 20 mg kg-1 single dose, 5 h)?
Its value is -30.1 g.

What about the “food intake, difference compared with vehicle treated rats” value ([1]; experiment C, 20 mg kg-1 single dose, 18 h) of the same compound?
The value was -60.6 g.

What about the “food intake, difference compared with vehicle treated rats” value ([1]; experiment C, 20 mg kg-1 single dose, […]) of the same compound?
Its value is -15.0 g.

What about the “weight gain for several days after the experiment” value ([1]; experiment C, single administration (Compound 1 5 mg kg-1; Compound 3 10, 20 mg kg-1)) of the same compound?
The value was “significantly reduced”.

What about the “daily food intake after treatment relative to vehicle treated rats” value ([1]; experiment C, single administration (Compound 1 5 mg kg-1; Compound 3 10, 20 mg kg-1), days after) of the same compound?
Its value is “reduced”.

And the “weight gain, difference between 10 mg kg-1 and 20 mg kg-1 treatment groups” value ([1]; experiment C, single dose, day 5)?
The value was -12.3 g.

What about the “ingestion (hedonic) taste reactions, Mean±SEM” value (“ingestion … Mean±SEM” for short) (Rats; 2.0 mg/kg) of the same compound?
Its value is 10.5 (3.2).

And the “Mean (±SEM) saccharin preference ratio” value (Rats; 2.0 mg/kg)?
The value was 0.411 (0.059).

And the “ingestion … Mean±SEM” value (Rats; 4.0 mg/kg)?
The value was 4.5 (1.5).

What about the “Mean (±SEM) saccharin preference ratio” value (Rats; 4.0 mg/kg) of the same compound?
Its value is 0.298 (0.074).

What about the “ingestion … Mean±SEM” value (Rats; 8.0 mg/kg) of the same compound?
Its value is 1.3 (0.5).

What about the “Mean (±SEM) saccharin preference ratio” value (Rats; 8.0 mg/kg) of the same compound?
Its value is 0.088 (+0.017).

And the “effect on chin rubbing or conditioned gaping” value (Rats; 2.0, 4.0, 8.0 mg/kg)?
Its value is “no significant effects”.

And the “hypothermic effect of CP55,940” value (CB1 receptor; 5 mg kg-1 pre-treatment 45 min before CP55,940 0.3 mg kg-1, compared with vehicle)?
Its value is “completely blocked”.

And the “blood brain barrier passage” value (CB1 receptor; inferred from block of centrally mediated hypothermia, within a short period after administration)?
The value was “crosses the blood brain barrier”.
